# In PubChem BioAssay AID1259407 (Chemical Carcinogenesis Research Information System (CCRIS), 2018):
# Active and inactive are the calls of the source. The rule behind the calls is not given here.
# Tested on: CCRIS mutagenicity, Ames/micronucleus/aberration tests
# Test: CCRIS mutagenicity studies
# [1] = Test System: AMES SALMONELLA TYPHIMURIUM, Strain/Indicator: TA98, Metabolic Activation: NONE, Method: STANDARD PLATE
# [2] = Test System: AMES SALMONELLA TYPHIMURIUM, Strain/Indicator: TA98, Metabolic Activation: RAT, LIVER, S-9, AROCLOR 1254, Method: STANDARD PLATE
# [3] = Test System: AMES SALMONELLA TYPHIMURIUM, Strain/Indicator: TA100, Metabolic Activation: NONE, Method: STANDARD PLATE
# [4] = Test System: AMES SALMONELLA TYPHIMURIUM, Strain/Indicator: TA100, Metabolic Activation: RAT, LIVER, S-9, AROCLOR 1254, Method: STANDARD PLATE
# [5] = Test System: AMES SALMONELLA TYPHIMURIUM, Strain/Indicator: TA1535, Metabolic Activation: NONE, Method: STANDARD PLATE
# [6] = Test System: AMES SALMONELLA TYPHIMURIUM, Strain/Indicator: TA1535, Metabolic Activation: RAT, LIVER, S-9, AROCLOR 1254, Method: STANDARD PLATE
# [7] = Test System: AMES SALMONELLA TYPHIMURIUM, Strain/Indicator: TA1537, Metabolic Activation: NONE, Method: STANDARD PLATE
# [8] = Test System: AMES SALMONELLA TYPHIMURIUM, Strain/Indicator: TA1537, Metabolic Activation: RAT, LIVER, S-9, AROCLOR 1254, Method: STANDARD PLATE
# [9] = Test System: AMES SALMONELLA TYPHIMURIUM, Strain/Indicator: TA98, Metabolic Activation: NONE, Method: PREINCUBATION
# [10] = Test System: AMES SALMONELLA TYPHIMURIUM, Strain/Indicator: TA100, Metabolic Activation: NONE, Method: PREINCUBATION
# [11] = Test System: AMES SALMONELLA TYPHIMURIUM, Strain/Indicator: TA1535, Metabolic Activation: NONE, Method: PREINCUBATION
# [12] = Test System: AMES SALMONELLA TYPHIMURIUM, Strain/Indicator: TA1537, Metabolic Activation: NONE, Method: PREINCUBATION
smiles,measurement,setting,value
O=[N+]([O-])c1ccccc1OS(=O)(=O)c1cccc2cccnc12,mutagenic call,[1],inactive; negative
same,mutagenic call,[2],active; positive
same,mutagenic call,[3],inactive; negative
same,mutagenic call,[4],active; positive
same,mutagenic call,[5],inactive; negative
same,mutagenic call,[6],inactive; negative
same,mutagenic call,[7],inactive; negative
same,mutagenic call,[8],inactive; negative
COc1ccc(N(CCCl)CCCl)c2cc([N+](=O)[O-])oc12,mutagenic call,"Test System: AMES SALMONELLA TYPHIMURIUM, Strain/Indicator: TA100(NR), Metabolic Activation: NONE, Method: STANDARD PLATE",inactive; negative
same,mutagenic call,"Test System: AMES SALMONELLA TYPHIMURIUM, Strain/Indicator: TA100(NR), Metabolic Activation: RAT, LIVER, S-9, AROCLOR 1254, Method: STANDARD PLATE",active; positive
same,mutagenic call,[3],active; positive
same,mutagenic call,[4],active; positive
C[Si]1(C)O[Si](C)(C)O[Si](C)(C)O1,mutagenic call,[1],inactive; negative
same,mutagenic call,"Test System: AMES SALMONELLA TYPHIMURIUM, Strain/Indicator: TA98, Metabolic Activation: RAT LIVER S-9, AROCLOR 1254, Method: STANDARD PLATE",inactive; negative
same,mutagenic call,[3],inactive; negative
same,mutagenic call,"Test System: AMES SALMONELLA TYPHIMURIUM, Strain/Indicator: TA100, Metabolic Activation: RAT LIVER S-9, AROCLOR 1254, Method: STANDARD PLATE",inactive; negative
same,mutagenic call,[5],inactive; negative
same,mutagenic call,"Test System: AMES SALMONELLA TYPHIMURIUM, Strain/Indicator: TA1535, Metabolic Activation: RAT LIVER S-9, AROCLOR 1254, Method: STANDARD PLATE",inactive; negative
same,mutagenic call,[7],inactive; negative
same,mutagenic call,"Test System: AMES SALMONELLA TYPHIMURIUM, Strain/Indicator: TA1537, Metabolic Activation: RAT LIVER S-9, AROCLOR 1254, Method: STANDARD PLATE",inactive; negative
same,mutagenic call,"Test System: AMES SALMONELLA TYPHIMURIUM, Strain/Indicator: TA1538, Metabolic Activation: NONE, Method: STANDARD PLATE",inactive; negative
same,mutagenic call,"Test System: AMES SALMONELLA TYPHIMURIUM, Strain/Indicator: TA1538, Metabolic Activation: RAT LIVER S-9, AROCLOR 1254, Method: STANDARD PLATE",inactive; negative
same,mutagenic call,"Test System: E. COLI, Strain/Indicator: P3078 POLA, Metabolic Activation: NONE, Method: SPOT TEST",inactive; negative
same,mutagenic call,"Test System: E. COLI, Strain/Indicator: P3078 POLA, Metabolic Activation: RAT LIVER S-9, AROCLOR 1254, Method: SPOT TEST",inactive; negative
same,mutagenic call,"Test System: E. COLI, Strain/Indicator: W3110, Metabolic Activation: NONE, Method: SPOT TEST",inactive; negative
same,mutagenic call,"Test System: E. COLI, Strain/Indicator: W3110, Metabolic Activation: RAT LIVER S-9, AROCLOR 1254, Method: SPOT TEST",inactive; negative
same,mutagenic call,"Test System: MOUSE LYMPHOMA, Strain/Indicator: L5178Y (TK+/TK-), Metabolic Activation: NONE, Method: SUSPENSION/PLATE",inactive; negative
same,mutagenic call,"Test System: MOUSE LYMPHOMA, Strain/Indicator: L5178Y (TK+/TK-), Metabolic Activation: RAT, LIVER, S-9, Method: SUSPENSION/PLATE",inactive; negative
CC(C)(C)C(=O)C1C(=O)c2ccccc2C1=O,mutagenic call,"Test System: AMES SALMONELLA TYPHIMURIUM, Strain/Indicator: TA98, Metabolic Activation: HAMSTER, LIVER, S-9, AROCLOR 1254 (10%), Method: PREINCUBATION",inactive; negative
same,mutagenic call,[9],inactive; negative
same,mutagenic call,"Test System: AMES SALMONELLA TYPHIMURIUM, Strain/Indicator: TA98, Metabolic Activation: RAT, LIVER, S-9, AROCLOR 1254 (10%), Method: PREINCUBATION",inactive; negative
same,mutagenic call,"Test System: AMES SALMONELLA TYPHIMURIUM, Strain/Indicator: TA100, Metabolic Activation: HAMSTER, LIVER, S-9, AROCLOR 1254 (10%), Method: PREINCUBATION",inactive; negative
same,mutagenic call,[10],inactive; negative
same,mutagenic call,"Test System: AMES SALMONELLA TYPHIMURIUM, Strain/Indicator: TA100, Metabolic Activation: RAT, LIVER, S-9, AROCLOR 1254 (10%), Method: PREINCUBATION",inactive; negative
same,mutagenic call,"Test System: AMES SALMONELLA TYPHIMURIUM, Strain/Indicator: TA1535, Metabolic Activation: HAMSTER, LIVER, S-9, AROCLOR 1254 (10%), Method: PREINCUBATION",inactive; negative
same,mutagenic call,[11],inactive; negative
same,mutagenic call,"Test System: AMES SALMONELLA TYPHIMURIUM, Strain/Indicator: TA1535, Metabolic Activation: RAT, LIVER, S-9, AROCLOR 1254 (10%), Method: PREINCUBATION",inactive; negative
same,mutagenic call,"Test System: AMES SALMONELLA TYPHIMURIUM, Strain/Indicator: TA1537, Metabolic Activation: HAMSTER, LIVER, S-9, AROCLOR 1254 (10%), Method: PREINCUBATION",inactive; negative
same,mutagenic call,[12],inactive; negative
same,mutagenic call,"Test System: AMES SALMONELLA TYPHIMURIUM, Strain/Indicator: TA1537, Metabolic Activation: RAT, LIVER, S-9, AROCLOR 1254 (10%), Method: PREINCUBATION",inactive; negative
Cc1cc(C)nc(SC(=O)OC(C)(C)C)n1,mutagenic call,[1],inactive; negative
same,mutagenic call,[2],inactive; negative
same,mutagenic call,[3],inactive; negative
same,mutagenic call,[4],inactive; negative
same,mutagenic call,[5],inactive; negative
same,mutagenic call,[6],inactive; negative
same,mutagenic call,[7],inactive; negative
same,mutagenic call,[8],inactive; negative
C=CCOCC1CO1 (configuration not stated),mutagenic call,"End Point: IN VITRO CHROMOSOMAL ABERRATIONS, Test System: CHL CELLS, Metabolic Activation: NONE",active; positive (structural changes)
same,mutagenic call,"End Point: IN VITRO CHROMOSOMAL ABERRATIONS, Test System: CHL CELLS, Metabolic Activation: RAT, LIVER, S-9, SODIUM PHENOBARBITAL AND 5,6-BENZOFLAVONE",active; positive (structural changes
same,mutagenic call,"Test System: AMES SALMONELLA TYPHIMURIUM, Strain/Indicator: TA98, Metabolic Activation: HAMSTER, LIVER, S-9, AROCLOR 1254, Method: PREINCUBATION",inactive; negative
same,mutagenic call,[9],inactive; negative
same,mutagenic call,"Test System: AMES SALMONELLA TYPHIMURIUM, Strain/Indicator: TA98, Metabolic Activation: RAT, LIVER, S-9, AROCLOR 1254, Method: PREINCUBATION",inactive; negative
same,mutagenic call,"Test System: AMES SALMONELLA TYPHIMURIUM, Strain/Indicator: TA100, Metabolic Activation: HAMSTER, LIVER, S-9, AROCLOR 1254, Method: PREINCUBATION",active; positive
same,mutagenic call,[10],active; positive
same,mutagenic call,"Test System: AMES SALMONELLA TYPHIMURIUM, Strain/Indicator: TA100, Metabolic Activation: RAT, LIVER, S-9, AROCLOR 1254, Method: PREINCUBATION",active; positive
same,mutagenic call,"Test System: AMES SALMONELLA TYPHIMURIUM, Strain/Indicator: TA1535, Metabolic Activation: HAMSTER, LIVER, S-9, AROCLOR 1254, Method: PREINCUBATION",active; positive
same,mutagenic call,[11],active; positive
same,mutagenic call,"Test System: AMES SALMONELLA TYPHIMURIUM, Strain/Indicator: TA1535, Metabolic Activation: RAT, LIVER, S-9, AROCLOR 1254, Method: PREINCUBATION",active; positive
same,mutagenic call,"Test System: AMES SALMONELLA TYPHIMURIUM, Strain/Indicator: TA1537, Metabolic Activation: HAMSTER, LIVER, S-9, AROCLOR 1254, Method: PREINCUBATION",inactive; negative
same,mutagenic call,[12],inactive; negative
same,mutagenic call,"Test System: AMES SALMONELLA TYPHIMURIUM, Strain/Indicator: TA1537, Metabolic Activation: RAT, LIVER, S-9, AROCLOR 1254, Method: PREINCUBATION",inactive; negative
